Laboratory results reported in ChEMBL document CHEMBL1250440, “Development of chemical probes: toward the mode of action of a methylene-linked di(aryl acetate) E1” (Bioorg Med Chem, 2010).
The source made the active and inactive calls. The rule behind the calls is not given here.

What follows are molecules tested against T1, RAC-alpha serine/threonine-protein kinase (Homo sapiens, UniProt P31749) (assay: Inhibition of PKB/Akt activation in human overnight starved MCF7 cells assessed as phosphorylated Akt at Ser473 level at 50 ug/ml after 1 hr followed by treated with 1 ug/mL of insulin for 15 mins by Western blotting).
T1 sequence (P31749 whole entry): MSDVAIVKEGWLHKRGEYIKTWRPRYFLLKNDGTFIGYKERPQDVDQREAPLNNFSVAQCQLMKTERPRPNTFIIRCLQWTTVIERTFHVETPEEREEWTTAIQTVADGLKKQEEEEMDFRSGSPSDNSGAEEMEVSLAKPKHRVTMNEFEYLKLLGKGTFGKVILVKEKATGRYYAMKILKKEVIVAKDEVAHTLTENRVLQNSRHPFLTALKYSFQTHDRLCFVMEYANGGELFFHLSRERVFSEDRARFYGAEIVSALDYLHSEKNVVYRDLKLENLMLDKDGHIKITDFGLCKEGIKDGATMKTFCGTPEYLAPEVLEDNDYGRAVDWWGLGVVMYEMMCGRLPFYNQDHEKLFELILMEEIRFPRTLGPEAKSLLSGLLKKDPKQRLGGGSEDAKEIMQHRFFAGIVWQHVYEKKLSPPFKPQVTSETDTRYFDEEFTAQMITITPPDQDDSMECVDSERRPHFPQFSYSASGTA
Format: cell-based
Work on `CCc1ccc(OC(C)=O)c(Cc2cc(CCCl)ccc2OC(C)=O)c1` yielded an IC50 of 25 µM.

What follows are molecules tested against T1, RAC-alpha serine/threonine-protein kinase (assay: Inhibition of PKB activation in human overnight starved MCF7 cells assessed as phosphorylated Akt at Ser473 level at 50 ug/ml after 1 hr followed by treated with 1 ug/mL of insulin for 15 mins by Western blotting).
For `CCc1ccc(OC(C)=O)c(Cc2ccccc2OC(C)=O)c1`, the “inhibition of PKB activation (active/not active)” value (from here on “inhibition … (active/not active)”) was “inactive”. In the case of `CC(=O)Oc1ccccc1Cc1cc(CCCl)ccc1OC(C)=O`, the “inhibition … (active/not active)” value is reported as “Active”. For `CC(=O)Oc1ccccc1Cc1ccccc1OC(C)=O`, the “inhibition … (active/not active)” value was “inactive”. In the case of `CCc1ccc(OC(C)=O)c(Cc2cc(CC)ccc2OC(C)=O)c1`, the “inhibition … (active/not active)” value is reported as “Active”. For `CCc1ccc(Cc2cc(CCCl)ccc2OC(C)=O)c(OC(C)=O)c1`, the “inhibition … (active/not active)” value was “Active”. `CCc1ccc(OC(C)=O)c(Cc2cc(CCCl)ccc2OC(C)=O)c1` was tested, and the “inhibition … (active/not active)” value was “Active”.
